The IC50 is the concentration that inhibits the measured activity by half.

In the experiment the target is DNA-PK (Homo sapiens (Human), UniProt P78527). The experiment is described as follows: DNA-PK/Biochemical Assay (FlashPlate kinase assay). Particulars: 5 μM ATP, 90 min, room temperature. On the procedure: The kinase assay was carried out in streptavidin-coated […] microtitre FlashPlates®. To this end, 1.5 μg of the DNA-PK/protein complex and 100 ng of biotinylated substrate, such as, for example, […] biotin-NH2 (“biotin-DNA-PK peptide”), in a total volume of 36.5 μl (34.25 mM HEPES/KOH, 7.85 mM Tris-HCl, 68.5 mM KCl, 5 μM ATP, 6.85 mM MgCl2, 0.5 mM EDTA, 0.14 mM EGTA, 0.69 mM DTT, pH 7.4), were incubated at room temperature for 90 min with 500 ng of DNA from calf thymus, 0.1 μCi of 33P-ATP and 1.8% of DMSO per well with or without the test compound. The reaction was stopped using 50 μl/well of 200 mM EDTA. After incubation for a further 30 min at room temperature, the liquid was removed. Each well was washed three times with 100 μl of 0.9% sodium chloride solution. A non-specific reaction (blank value) was determined using 10 μM of a proprietary kinase inhibitor. The radioactivity measurement was carried out by means of a TopCount. IC50 values were calculated in RS1. • Literature: Kashishian et al. (2003) Molecular Cancer Therapeutics 1257.
As for `COc1cc2ncc3c(c(-c4ccc(-c5ccn[nH]5)cc4)nn3C)c2cc1OCc1cncs1` [Compound 79, 7-Methoxy-3-methyl-1-[4-(2H-pyrazol-3-yl)phenyl]-8-(thiazol-5-ylmethoxy)-3H-pyrazolo[3,4-c]quinoline], the IC50 was less than 0.1 µM.

For the compound `CCn1nc(-c2ccc(C#N)cc2F)c2c3cc(OC)c(OC)cc3ncc21` [Compound 57, 4-(3-Ethyl-7,8-dimethoxy-3H-pyrazolo[3,4-c]quinolin-1-yl)-3-fluorobenzonitrile], the IC50 was in the range of 0.1 to 0.5 µM.

`COc1cc2ncc3c(c(-c4ccc(C#N)cc4)nn3C)c2cc1OC(C(=O)NC(=N)N)c1ccc(F)cc1` (stereo not drawn) [Compound 54, N-[2-[1-(4-Cyano-phenyl)-7-methoxy-3-methyl-3H-pyrazolo-[3,4-c]quinolin-8-yl-oxy]-2-(4-fluoro-phenyl)acetyl]-guanidine] came in with an IC50 of less than 0.1 µM.

As for `COc1cc2ncc3c(c(-c4ccc(C#N)cc4)nn3C)c2cc1OS(=O)(=O)c1ccc(C)cc1` [Compound 24, 1-(4-Cyanophenyl)-7-methoxy-3-methyl-3H-pyrazolo[3,4-c]quinolin-8-yl toluene-4-sulfonate], the concentration for half-maximal inhibition (IC50) was 0.1 to 0.5 µM.

As to `COc1cc2ncc3c(c(-c4ccc(C#N)cc4)nn3C)c2cc1OC(C(=O)NO)c1ccc(F)cc1` (stereo not drawn) [Compound 53, 2-[1-(4-Cyano-phenyl)-7-methoxy-3-methyl-3H-pyrazolo-[3,4-c]quinolin-8-yloxy]-2-(4-fluoro-phenyl)-N-hydroxy-acetamide], the IC50 is less than 0.1 µM.

`COCCNC(=O)C(Oc1cc2c(cc1OC)ncc1c2c(-c2ccc(C#N)cc2)nn1C)c1ccc(F)cc1` (stereo not drawn) [Compound 55, 2-[1-(4-Cyano-phenyl)-7-methoxy-3-methyl-3H-pyrazolo-[3,4-c]quinolin-8-yloxy]-2-(4-fluoro-phenyl)-N-(2-methoxyethyl)-acetamide]: the IC50 was less than 0.1 µM.

As for `COc1cc2ncc3c(c(-c4ccc(C#N)cc4F)nn3C)c2cc1-c1cnc2ccccc2c1` [Compound 78, 3-Fluoro-4-(7-methoxy-3-methyl-8-quinolin-3-yl-3H-pyrazolo[3,4-c]-quinolin-1-yl)-benzonitrile], the IC50 was less than 0.1 µM.

With `COc1cc2ncc3c(c(-c4ccc(C#N)cc4)nn3C)c2cc1OC(F)F` [Compound 16, 4-(8-Difluoromethoxy-7-methoxy-3-methyl-3H-pyrazolo[3,4-c]quinolin-1-yl)-benzonitrile], the IC50 is less than 0.1 µM.

Consider `COc1cc2ncc3c(c(-c4ccc(C#N)cc4)nn3C)c2cc1O` [Compound 5, 4-(8-Hydroxy-7-methoxy-3-methyl-3H-pyrazolo-[3,4-c]quinolin-1-yl)-benzonitrile], for which the 50% inhibitory concentration (IC50) is less than 0.1 µM.

For the compound `COc1cc2ncc3c(c(-c4ccc(C#N)cc4)nn3C)c2cc1OCc1cc(Br)cs1` [Compound 36, 4-[8-(4-Bromothiophen-2-ylmethoxy)-7-methoxy-3-methyl-3H-pyrazolo[3,4-c]-quinolin-1-yl]benzonitrile], the IC50 is less than 0.1 µM.

Consider `COc1cc2ncc3c(c(-c4ccc(C#N)cc4)nn3CC#N)c2cc1OC` [Compound 66, 4-(3-Cyanomethyl-7,8-dimethoxy-3H-pyrazolo[3,4-c]-quinolin-1-yl)benzonitrile], for which the IC50 was less than 0.1 µM.

Turning to `COc1cc2ncc3c(c(-c4ccc(C#N)cc4)nn3CC(C)C)c2cc1OC` [Compound 61, 4-(3-lsobutyl-7,8-dimethoxy-3H-pyrazolo[3,4-c]quinolin-1-yl)benzonitrile], the half-maximal inhibitory concentration (IC50) is greater than 0.5 µM.

For `COc1cc2ncc3c(c(-c4ccc(C#N)cc4)nn3C)c2cc1O[C@H](C(N)=O)c1ccc(F)cc1` [Compound 10, (S)-2-[1-(4-Cyanophenyl)-7-methoxy-3-methyl-3H-pyrazolo[3,4-c]quinolin-8-yloxy]-2-(4-fluorophenyl)-acetamide], the IC50 is less than 0.1 µM.

In turn, `COc1cc2ncc3c(c(-c4ccc(C#N)cc4)nn3C)c2cc1OCc1cccs1` [Compound 34, 4-[7-Methoxy-3-methyl-8-(thiophen-2-ylmethoxy)-3H-pyrazolo[3,4-c]quinolin-1-yl]-benzonitrile] came in with an IC50 of less than 0.1 µM.

In turn, `CCCn1nc(-c2ccc(C#N)cc2)c2c3cc(OC)c(OC)cc3ncc21` [Compound 59, 4-(7,8-Dimethoxy-3-propyl-3H-pyrazolo[3,4-c]quinolin-1-yl)-benzonitrile] displayed an IC50 of 0.1 to 0.5 µM.

In the case of `COC(=O)c1cc(-c2[nH]nc3cnc4cc(OC)c(OC)cc4c23)ccc1C#N` [Compound 72, 2-Cyano-5-(7,8-dimethoxy-3H-pyrazolo[3,4-c]quinolin-1-yl)benzoic acid methyl ester], the IC50 is less than 0.1 µM.

In turn, `COc1cc2ncc3c(c(-c4ccc(C#N)cc4)nn3C3CC3)c2cc1OC` [Compound 62, 4-(3-Cyclopropyl-7,8-dimethoxy-3H-pyrazolo[3,4-c]-quinolin-1-yl)benzonitrile] yielded an IC50 of 0.1 to 0.5 µM.

`COc1cc2ncc3n[nH]c(-c4ccc(C#N)c(C(=O)O)c4)c3c2cc1OC` [Compound 73, 2-Cyano-5-(7,8-dimethoxy-3H-pyrazolo[3,4-c]quinolin-1-yl)benzoic acid] displayed an IC50 of less than 0.1 µM.

Consider `COc1cc2ncc3c(c(-c4ccc(C#N)cc4)nn3C)c2cc1O[C@@H](C(N)=O)c1ccc(F)cc1` [Compound 9, (R)-2-[1-(4-Cyanophenyl)-7-methoxy-3-methyl-3H-pyrazolo[3,4-c]quinolin-8-yloxy]-2-(4-fluorophenyl)-acetamide], for which the IC50 is less than 0.1 µM.

In turn, `COc1cc2ncc3c(c(-c4ccc(C#N)cc4)nn3C(F)F)c2cc1OC` [Compound 69, 4-(3-Difluoromethyl-7,8-dimethoxy-3H-pyrazolo[3,4-c]-quinolin-1-yl)benzonitrile] yielded an IC50 of less than 0.1 µM.

The compound `COc1cc2ncc3c(c(-c4ccc(C#N)cc4)nn3C)c2cc1OCc1ccc(-n2cccn2)nc1` [Compound 29, 4-[7-Methoxy-3-methyl-8-(6-pyrazol-1-ylpyridin-3-ylmethoxy)-3H-pyrazolo-[3,4-c]quinolin-1-yl]-benzonitrile] showed an IC50 greater than 0.5 µM.

`COc1cc2ncc3c(c(-c4ccc(-c5ccn[nH]5)cc4)nn3C)c2cc1-c1cn[nH]c1` [Compound 88, 7-Methoxy-3-methyl-8-(1H-pyrazol-4-yl)-1-[4-(2H-pyrazol-3-yl)phenyl]-3H-pyrazolo[3,4-c]quino-line] showed an IC50 of less than 0.1 µM.

In turn, `COc1cc2ncc3c(c(-c4ccc(C#N)cc4F)nn3C)c2cc1-c1cccnc1` [Compound 77, 3-Fluoro-4-(7-methoxy-3-methyl-8-pyridin-3-yl-3H-pyrazolo[3,4-c]-quinolin-1-yl)-benzonitrile] yielded an IC50 of less than 0.1 µM.

Regarding `CCN1CCN(c2ccc(-c3nn(C)c4cnc5cc(OC)c(OC)cc5c34)cc2)CC1` [Compound 75, 1-[4-(4-Ethylpiperazin-1-yl)-phenyl]-7,8-dimethoxy-3-methyl-3H-pyrazolo[3,4-c]-quinoline], the IC50 was in the range of 0.1 to 0.5 µM.

Compound `COc1cc2ncc3c(c(-c4ccc(C#N)cc4)nn3C)c2cc1OCc1ccc(-n2cncn2)cc1` [Compound 31, 4-[7-Methoxy-3-methyl-8-(4-1,2,4-triazol-1-ylbenzyloxy)-3H-pyrazolo[3,4-c]quinolin-1-yl]benzonitrile] returned an IC50 greater than 0.5 µM.

With `COC(=O)C(Oc1cc2c(cc1OC)ncc1c2c(-c2ccc(C#N)cc2)nn1C)c1ccc(F)cc1` (stereo not drawn) [Compound 18, Methyl 1-(4-cyanophenyl)-7-methoxy-3-methyl-3H-pyrazolo[3,4-c]quinolin-8-yloxy]-(4-fluorophenyl)-acetate], the IC50 lay within 0.1 to 0.5 µM.

`COc1cc2ncc3c(c(-c4ccc(C#N)cc4)nn3C)c2cc1OCc1nccs1` [Compound 39, 4-[7-Methoxy-3-methyl-8-(thiazol-2-ylmethoxy)-3H-pyrazolo[3,4-c]quinolin-1-yl]-benzonitrile] displayed an IC50 of less than 0.1 µM.

For `COc1cc2ncc3c(c(-c4ccc(C#N)cc4)nn3C)c2cc1OC(F)(F)c1ccccc1` [Compound 17, 4-[8-(Difluorophenyl-methoxy)-7-methoxy-3-methyl-3H-pyrazolo[3,4-c]-quinolin-1-yl]benzonitrile], the IC50 lay within 0.1 to 0.5 µM.

`COc1cc2ncc3c(c(-c4ccc(C#N)cc4)nn3C)c2cc1OCc1ccnc(C#N)c1` [Compound 38, 4-[1-(4-Cyanophenyl)-7-methoxy-3-methyl-3H-pyrazolo[3,4-c]quinolin-8-yl-oxymethyl]pyridine-2-nitrile] had an IC50 of 0.1 to 0.5 µM.

`COc1cc2ncc3c(c(-c4ccc(C#N)cc4)nn3CC(=O)O)c2cc1OC` [Compound 67, [1-(4-Cyanophenyl)-7,8-dimethoxypyrazolo[3,4-c]-quinolin-3-yl]acetic acid] came in with an IC50 of 0.1 to 0.5 µM.

In turn, `COc1cc2ncc3c(c(-c4ccc(C#N)cc4)nn3C)c2cc1OCc1cccc(CN2CCOCC2)c1` [Compound 28, 4-[7-Methoxy-3-methyl-8-(3-morpholin-4-ylmethyl-benzyloxy)-3H-pyrazolo-[3,4-c]quinolin-1-yl]-benzonitrile] came in with an IC50 of 0.1 to 0.5 µM.

In the case of `COc1cc2ncc3c(c(-c4ccc(C#N)cc4)nn3C)c2cc1OC(C(=O)O)c1ccccc1` (stereo not drawn) [Compound 20, [1-(4-Cyanophenyl)-7-methoxy-3-methyl-3H-pyrazolo[3,4-c]quinolin-8-yloxy]phenylacetic acid], the IC50 was less than 0.1 µM.

As to `COc1cc2ncc3c(c(-c4ccc(C#N)cc4)nn3C)c2cc1OCc1ccncc1` [Compound 11, 4-[7-Methoxy-3-methyl-8-(pyridin-4-ylmethoxy)-3H-pyrazolo[3,4-c]quinolin-1-yl]-benzonitrile], the IC50 was less than 0.1 µM.

Source of the values: patent US8802712B2, “Pyrazoloquinolines” (Merck Patent GmbH, priority 2010, dated 2014).
